Source: patent US5616615A, “Enaminone esters” (priority 1995, dated 1997)
Read-outs that look alike come from different tables or passages of the source.

How the values were obtained:
in vivo [1] = details: rat, po, 50 mg/kg
Text: (§1) This oral screen is designated as phase VI.

seizures = experiment: Anticonvulsant evaluation (ASP phase I / overall); format: in vivo, mice; details: Mus musculus, ip, read-out: ASP Classification
How it was run: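 Male Carworth Farms #1 mice; maximal electroshock seizures elicited by 60-cycle AC, 50 mA, 0.2 s via corneal electrodes after a drop of 0.9% saline in the eye. Animals observed for 30 minutes.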

in vivo [2] = details: for Tox, animals toxic/tested / Tox (rotorod), animals toxic/tested: mouse, in vivo; for Tox, animals toxic/tested: ip
Description: The first phase of the ADD Program involved performing tests on male Carworth Farms #1 mice. […] Three tests were performed:
In the second phase of the ADD program protocol, estimates of anticonvulsant activity and neurotoxicity are quantified. The median effective dose (ED50) in the MES, sc Met, and rotorod test is determined. In the case of a compound with apparent activity in only one anticonvulsant test, testing is carried out in the other up to, and in some cases beyond, doses which produce neurological deficit. Compounds which fail to produce minimal neurological deficit are tested whenever possible to doses ten times their lowest anticonvulsant ED50. […] The rotorod ED50 is determined at the time of the peak neurologic deficit.

[3] = system: Subcutaneous Pentylenetetrazol seizure; experiment: sc Met subcutaneous pentylenetetrazol (Metrazol) seizure test, mice; format: in vivo; details: for responders at 100 mg/kg / responders at 300 mg/kg: Mus musculus, sc
[4] = system: Maximal electroshock seizures; experiment: MES maximal electroshock seizure test, mice ip; format: in vivo; details: for responders at 10 mg/kg / responders at 100 mg/kg / responders at 300 mg/kg / responders at 3 mg/kg: Mus musculus, ip; for anti-MES protecting ability: Phase I
Description: Three tests were performed:
1. MES--Electroshock Seizure Test
(§2) Maximal electroshock seizures are elicited with a 60-cycle alternating current of 50 mA intensity (5-7 times that necessary to elicit minimal electroshock seizures) delivered via corneal electrodes for 0.2 seconds. A drop of 0.9% saline is instilled in the eye prior to application of the electrodes in order to […].

[5] = system: Maximal electroshock seizures; experiment: Phase VI oral MES test, rats; format: in vivo; details: for responders at 50 mg/kg: Rattus norvegicus
Text: as §2, §1

[6] = 0.5 h, 100 mg/kg, 30 min, read-out: scMet, animals protected/tested (converted)
[7] = 0.5 h, 300 mg/kg, 30 min, read-out: scMet, animals protected/tested (converted)
[8] = 4 h, 100 mg/kg, 4 h, read-out: scMet, animals protected/tested (converted)
[9] = 4 h, 300 mg/kg, 4 h, read-out: scMet, animals protected/tested (converted)
[10] = 0.25 h, mice ip, 0.25 h, read-out: MES, animals protected/tested (converted)
[11] = 0.5 h, 100 mg/kg, 30 min, read-out: MES, animals protected/tested (converted)
[12] = 0.5 h, 300 mg/kg, 30 min, read-out: MES, animals protected/tested
[13] = 0.5 h, mice ip, 0.50 h, read-out: MES, animals protected/tested (converted)
[14] = 1 h, mice ip, 1.00 h, read-out: MES, animals protected/tested (converted)
[15] = 2 h, mice ip, 2.00 h, read-out: MES, animals protected/tested (converted)
[16] = 4 h, 100 mg/kg, 4 h, read-out: MES, animals protected/tested (converted)
[17] = 4 h, 300 mg/kg, 4 h, read-out: MES, animals protected/tested
[18] = 4 h, mice ip, 4.00 h, read-out: MES, animals protected/tested (converted)
[19] = 0.5 h, oral, 50 mg/kg, 0.50 h, read-out: MES, animals protected/tested (converted)
[20] = oral, 50 mg/kg, 0.25 h, read-out: MES, animals protected/tested (converted)
[21] = oral, 50 mg/kg, 1.00 h, read-out: MES, animals protected/tested (converted)
[22] = oral, 50 mg/kg, 2.00 h, read-out: MES, animals protected/tested (converted)
[23] = oral, 50 mg/kg, 4.00 h, read-out: MES, animals protected/tested (converted)
[24] = 4 h, read-out: scMet, animals protected/tested
[25] = 0.5 h, read-out: MES, animals protected/tested
[26] = 4 h, read-out: MES, animals protected/tested
[27] = 0.25 h, Phase II, 100 mg/kg, 0.25 h, read-out: MES, animals protected/tested (converted)
[28] = 1 h, Phase II, 100 mg/kg, 1.00 h, read-out: MES, animals protected/tested (converted)
[29] = 0.5 h, Phase II, 0.50 h, read-out: MES, animals protected/tested
[30] = 0.5 h, Phase II, 0.50 h, read-out: MES, animals protected/tested (converted)
[31] = 0.5 h, 300 mg/kg, 30 min, second trial, read-out: scMet, animals protected/tested (converted)

Row | SMILES | Tox, animals toxic/tested (in vivo [1]) | minimal effective dose (seizures; Phase I) | responders at 100 mg/kg [3, 6] | responders at 300 mg/kg [3, 7] | responders at 100 mg/kg [3, 8] | responders at 300 mg/kg [3, 9] | responders at 10 mg/kg [4, 10] | responders at 100 mg/kg [4, 11] | responders at 300 mg/kg [4, 12] | responders at 10 mg/kg [4, 13] | responders at 10 mg/kg [4, 14] | responders at 10 mg/kg [4, 15] | responders at 100 mg/kg [4, 16] | responders at 300 mg/kg [4, 17] | responders at 10 mg/kg [4, 18] | anti-MES protecting ability [4] | responders at 50 mg/kg [5, 19] | responders at 50 mg/kg [5, 20] | responders at 50 mg/kg [5, 21] | responders at 50 mg/kg [5, 22] | further results
1 | CCOC(=O)C1C(=O)C=C(Nc2ccc(Br)cc2)CC1C (stereo not shown) [Compound 123] | 0/4 | < 100 mg/kg | 0% | 0% | 0% | 0% | 75% | 100% | 100% | 75% | 75% | 50% | 66.7% | 100% | 0% | showed anti-MES protecting ability | 100% | 100% | 100% | 100% | Tox, animals toxic/tested (in vivo [2]; 100 mg/kg): 0/8; responders at 50 mg/kg [5, 23]: 100%
2 | O=C1C=C(NCCc2ccccc2)CCC1 [Compound 149] |  |  |  |  |  |  |  |  |  |  |  |  |  |  |  |  |  |  |  |  | minimal effective dose (seizures): < 100 mg/kg; Tox, animals exhibiting toxicity/tested (in vivo [2]; 100 mg/kg, 30 min): 4/8; Tox, animals exhibiting toxicity/tested (in vivo [2]; 100 mg/kg, 4 h): 0/4; Tox, animals exhibiting toxicity/tested (in vivo [2]; 300 mg/kg, 4 h): 1/2; responders at 100 mg/kg ([3]; 0.5 h, read-out: scMet, animals protected/tested): 0%; responders at 100 mg/kg [3, 24]: 0%; responders at 300 mg/kg [3, 24]: 0%; responders at 100 mg/kg [4, 25]: 100%; responders at 300 mg/kg [4, 25]: 100%; responders at 100 mg/kg [4, 26]: 0%; responders at 300 mg/kg [4, 26]: 0%; responders at 50 mg/kg ([5]; po, 0.25 h, read-out: MES, animals protected/tested): 100%; responders at 50 mg/kg ([5]; po, 0.5 h, read-out: MES, animals protected/tested): 100%; responders at 50 mg/kg ([5]; po, 1 h, read-out: MES, animals protected/tested): 75%; responders at 50 mg/kg ([5]; po, 2 h, read-out: MES, animals protected/tested): 25%; responders at 50 mg/kg ([5]; po, 4 h, read-out: MES, animals protected/tested): 25%
3 | CCOC(=O)C1C(=O)C=C(Nc2ccc(CC)cc2)CC1C (stereo not shown) [Compound 126] | 0/4 | > 100 mg/kg |  | 0% |  | 0% |  |  | 100% |  |  |  |  | 0% |  |  | 75% | 50% | 75% | 75% | Tox (rotorod), animals toxic/tested (in vivo [2]; 100 mg/kg): 0/2; responders at 100 mg/kg [4, 27]: 100%; responders at 100 mg/kg [4, 28]: 0%; responders at 50 mg/kg [5, 23]: 50%
4 | CCOC(=O)C1C(=O)C=C(Nc2ccc(C(F)(F)F)cc2)CC1C (stereo not shown) [Compound 131] | 0/4 | < 100 mg/kg | 0% | 0% | 0% | 0% | 100% | 100% | 100% | 75% | 100% | 50% | 0% | 100% | 50% | showed anti-MES protecting ability | 100% | 100% | 100% | 100% | Tox, animals toxic/tested (in vivo [2]; 100 mg/kg): 0/8
5 | O=C1C=C(NCCc2ccccc2)CCC1 [Compound 154] | 0/4 |  |  |  |  |  |  |  |  |  |  |  |  |  |  |  |  |  |  |  | Tox (rotorod), animals toxic/tested (in vivo [2]; 100 mg/kg): 0/2; scMet, animals protected/tested ([3]; 300 mg/kg, 30 min): 0/1; scMet, animals protected/tested ([3]; 300 mg/kg, 4 h): 0/1; MES, animals protected/tested ([4]; 300 mg/kg, 30 min): 1/1; MES, animals protected/tested ([4]; 300 mg/kg, 4 h): 0/1; MES, animals protected/tested ([4]; Phase II, 100 mg/kg, 0.25 h): 2/2; MES, animals protected/tested ([4]; Phase II, 100 mg/kg, 1.00 h): 0/2; MES, animals protected/tested ([5]; oral, 50 mg/kg, 0.25 h): 0/4; MES, animals protected/tested ([5]; oral, 50 mg/kg, 0.50 h): 0/4; MES, animals protected/tested ([5]; oral, 50 mg/kg, 1.00 h): 0/4; MES, animals protected/tested ([5]; oral, 50 mg/kg, 2.00 h): 0/4; MES, animals protected/tested ([5]; oral, 50 mg/kg, 4.00 h): 0/4
6 | COC(=O)C1C(=O)C=C(Nc2ccc(C(F)(F)F)cc2)CC1(C)C (stereo not shown) [Compound 121] | 0/4 | < 100 mg/kg | 0% | 0% | 0% | 0% |  | 100% | 100% |  |  |  | 100% | 100% |  |  | 75% | 75% | 100% | 100% | Tox (rotorod), animals toxic/tested (in vivo [2]; 3 mg/kg): 0/4; Tox (rotorod), animals toxic/tested (in vivo [2]; 10 mg/kg): 0/4; responders at 3 mg/kg [4, 29]: 0%; responders at 10 mg/kg [4, 30]: 0%
7 | CCOC(=O)C1C(=O)C=C(Nc2ccc(Cl)cc2)CC1C (stereo not shown) [Compound 122] | 0/4 | < 100 mg/kg | 0% | 100% | 0% | 0% | 75% | 100% | 100% | 75% | 100% | 25% | 0% | 100% | 25% | showed anti-MES protecting ability | 100% | 75% | 75% | 100% | Tox (rotorod), animals toxic/tested (in vivo [2]; 3 mg/kg): 0/4; Tox (rotorod), animals toxic/tested (in vivo [2]; 10 mg/kg): 0/4; responders at 300 mg/kg [3, 31]: 50%; responders at 3 mg/kg [4, 29]: 0%; responders at 10 mg/kg [4, 30]: 25%
8 | CCOC(=O)C1C(=O)C=C(Nc2ccc([N+](=O)[O-])cc2)CC1C (stereo not shown) [Compound 127] | 0/4 | < 100 mg/kg | 0% | 100% | 0% | 0% |  | 100% | 100% |  |  |  | 0% | 0% |  |  | 50% | 25% | 100% | 50% | Tox (rotorod), animals toxic/tested (in vivo [2]; 3 mg/kg): 0/4; Tox (rotorod), animals toxic/tested (in vivo [2]; 10 mg/kg): 0/4; responders at 300 mg/kg [3, 31]: 50%; responders at 3 mg/kg [4, 29]: 0%; responders at 10 mg/kg [4, 30]: 0%; responders at 50 mg/kg [5, 23]: 25%
9 | CCOC(=O)C1C(=O)C=C(Nc2cc(OC)ccc2OC)CC1C (stereo not shown) [Compound 128] |  | > 100 mg/kg |  | 0% |  | 0% |  |  | 100% |  |  |  |  | 0% |  |  |  |  |  |  | Tox (rotorod), animals toxic/tested (in vivo [2]; 100 mg/kg): 0/2; responders at 100 mg/kg [4, 27]: 0%; responders at 100 mg/kg [4, 28]: 0%
